We go through 4 molecules from US20040057908A1, “Oral compositions and use thereof” (priority 2003, published 2004).

One experiment concerns dental caries. As to the kind of experiment: Rat caries experiment: caries scores (Larson's modification of Keyes' system). It is filed as in vivo, Sprague Dawley rats. Particulars: for smooth-surface caries severity scores versus control (in words): Ds and Dm levels, tt-farnesol Dm only; for smooth-surface caries severity scores versus control (in words) / reduction of the incidence of smooth surface caries compared to control / incidence and severity of sulcal-surface caries (in words): p<0.05; for smooth surface caries, Keyes's score / reduction of the incidence of smooth surface caries compared to control / incidence and severity of sulcal-surface caries (in words): rats; for smooth surface caries, Keyes's score / reduction of the incidence of smooth surface caries compared to control: topical twice daily, five weeks. The method, then:
(§1) Seven litters of ten female Sprague Dawley rats aged 14 days were purchased with their dams from Charles River (Kingston, N.Y., USA). […] The experiment proceeded for five weeks, at which time the animals were killed by CO2 asphyxiation. The lower left jaw was aseptically dissected, suspended in 5.0 mL of sterile saline solution, and sonicated (three 10-second pulses with 5-second intervals at 30 watts, Branson Sonifier 450). The suspension was plated on mitis salivarius agar plus streptomycin to estimate S. sobrinus population and on blood agar to determine total cultivable flora (TCF). […] The determination of caries score was blind by codification of the jaws and was done by 1 calibrated examiner. […] The level of significance was 5%.

Experiment [1] relates to Streptococcus sobrinus 6715. As to the kind of experiment: Rat caries experiment: S. sobrinus recovered from the jaws. It is filed as in vivo, Sprague Dawley rats. Particulars: rats, topical twice daily, five weeks; 1.33 mM (fluoride 250 ppm); means (SD). How it is done: as §1
In experiment [2] the test system is T1, streptococcal GTFs.
T1 construct: Streptococcus milleri KSB8, which harbors the gtfB gene from S. mutans GS-5 (for GTF B production)
As to the kind of experiment: GTF activity adsorbed onto sHA surface, all GTFs stated together. Type of experiment: biochemical, Streptococcus mutans, S. sanguinis. Particulars: 1.33 mM. The method, then:
Glucosyltransferase activity was measured by the incorporation of [^14C-glucose] from labeled sucrose (NEN Research Products, Boston, Mass.) into glucans (Germaine et al., 1974; Venkitaraman et al., 1995). The GTF enzyme added to each sample for all assays was equivalent to the amount required to incorporate 1.0-1.5 μmol of glucose over the four hours reaction (1.0-1.5 units).
For surface assays, the GTFs were adsorbed to hydroxyapatite beads coated with clarified whole saliva (free of GTF activity), as detailed elsewhere (Koo et al., 2000c; Schilling and Bowen, 1988, Venkitaraman et al., 1995). The saliva-coated hydroxyapatite (sHA) beads were exposed to sufficient enzyme to saturate the surface as determined experimentally. Following the adsorption of the enzyme, the beads were washed 3 times with buffer to remove the loosely bound material and exposed to 300 μl of the two-fold dilution series of test compounds (or control) for 30 min. at the same concentrations described above. The beads were washed and exposed to 300 μl [^14C-glucose]-sucrose substrate (100.0 mmol/l sucrose, final concentration). The radiolabeled glucan formed was collected and quantified by scintillation counting (Germaine et al., 1974; Venkitaraman et al., 1995). All the solution and surface assays were done in quadruplicate in at least 3 different experiments. […]

Experiment [3] concerns T1, streptococcal GTFs. As to the kind of experiment: GTF activity in solution, all GTFs (B, C, D, Ss) stated together. Type of experiment: biochemical, Streptococcus mutans, S. sanguinis. Particulars: for inhibitory effects on the activities of GTFs (in words): 1.33 mM (fluoride 250 ppm), solution and sHA surface. The method, then: The GTF enzyme added to each sample for all assays was equivalent to the amount required to incorporate 1.0-1.5 μmol of glucose over the four hours reaction (1.0-1.5 units).
The samples were incubated 37° C. with rocking for 4 h.
For this assay, a one-way layout experimental design was used in 4×2×7 factorial scheme (enzyme×state×dose). An analysis of variance was carried out and qualitative treatments were compared using Tukey test at level of 5% of significance (p<0.05). A non-linear regression was applied in order to evaluate effects of different concentrations.

In the next experiment the test system is mutans streptococci. As to the kind of experiment: Time-kill studies, broth macrodilution. It is filed as cell-based, S. mutans GS-5 and UA159, S. sobrinus 6715. The method, then: For the compound with highest antibacterial activity, the time kill studies were performed by broth macrodilution method (National Committee for Clinical Laboratory Standards, Tentative standard M26-T, 1992). The starting inoculum of S. mutans GS-5 and UA159, and S. sobrinus 6715 was 1-5×10^6 CFU/ml. The final concentration of the antibacterial agent was 4 times MIC (or MBC values). Tubes containing the microorganisms and the test compound in TSB were incubated in 5% CO2 at 37° C.; samples were removed for viable counts at 0, 30 min., 1, 2, 4, 8, and 24 h. Serial dilutions (10^−1 to 10^−4) were prepared in sterile 0.9% sodium chloride solution. The diluted sample (50 μl) was plated on to tryptic soy agar by means of a spiral plater (Autoplate model 3000, Spiral Biotech, Inc., Bethesda, Md.). The plates were incubated in 5% CO2 at 37° C. for 48 h, when the number of colonies was determined. Killing curves were constructed by plotting log10 CFU/ml versus time over 24 h. All the assays were done in quadruplicate on at least 3 occasions. Bactericidal effect was defined as a ≧3 log10 decreases in the CFU/ml from the original inoculum. The potential for drug carry-over to produce falsely low viability counts was minimized by dilution of inocula and plating of small volumes of diluted samples (50 μl). In addition, no evidence of drug carry-over was detected at the lowest dilution used for plating (10^−1).

Experiment [4] relates to Mutans Streptococci Strains. As to the kind of experiment: MIC and MBC, broth dilution, all strains stated together. Type of experiment: cell-based, S. mutans (GS-5 and UA159) and S. sobrinus 6715. Particulars: Streptococcus mutans. How it is done:
(§2) The minimum inhibitory concentration (MIC) and minimum bactericidal concentration (MBC) were determined for each test compound according to the National Committee for Clinical Laboratory Standards guidelines (Tentative standard M26-T, 1992; NCCLS Publication No. M7-A5, 2000) and Koo et al. (2000b). The broth microdilution and macrodilution methods (in TSB) were used for the antibacterial tests. The starting inoculum was 5×10^5 CFU/ml and the concentrations of test compounds ranged from 15.6 to 500 μM (two-fold dilutions). The MICs and MBCs were determined in quadruplicate in at least 3 different experiments.
A general note: Broth dilution looks for growth in wells or tubes with falling amounts of substance.

Experiment [5] has as its system S. mutans UA159 and S. sobrinus 6715 biofilms. As to the kind of experiment: Time-kill assay in 5-day-old biofilms. It is filed as cell-based. Particulars: for antibacterial activity against mutans streptococci biofilms (in words): 1.33 mM (fluoride 250 ppm); for decrease in viable counts of biofilms: 1.33 mM, after 2-4 h incubation. The method, then: Cells of mutans streptococci were grown in tryptone-yeast extract broth with addition of 1% (w/v) sucrose at 37° C. and 5% CO2. […] The killing assays were performed according to Phan et al. (2000). […] The homogenized suspension was serially diluted (10^1 to 10^4) and plated on tryptic soy agar or blood agar by means of a spiral plater (Autoplate model 3000, Spiral Biotech, Inc., Bethesda, Md). […] Killing curves were constructed by plotting log10 CFU/ml versus time over 4 h. All the assays were carried out in quadruplicate on at least 3 different occasions. Bactericidal effect was defined as a ≧3 log10 decreases in the CFU/ml from initial viable counts, at time zero. The potential for drug carry-over to produce falsely low viability counts was minimized by dilution of inocula and plating of small volumes of diluted samples (50 μl).

The subject of a further experiment is streptococci. Kind of experiment: Membrane disruption seen in the phase-contrast microscope. It is filed as cell-based.
Experiment [6] relates to Streptococcus mutans GS-5. As to the kind of experiment: MIC and MBC, broth dilution. Type of experiment: cell-based. How it is done: as §2
The subject of experiment [7] is Streptococcus sobrinus 6715. As to the kind of experiment: MIC and MBC, broth dilution. Type of experiment: cell-based. How it is done: as §2
For experiment [8], the system named is Streptococcus mutans UA 159. As to the kind of experiment: MIC and MBC, broth dilution. Type of experiment: cell-based. The method, then:
as §2

The next experiment concerns S. mutans strains. Kind of experiment: MIC and MBC, broth dilution, S. mutans strains stated together. Type of experiment: cell-based, S. mutans (GS-5 and UA159). The method, then: as §2
The subject of a further experiment is biofilms. As to the kind of experiment: Formation of biofilms (continued research). Type of experiment: cell-based.

Values after ≈ are worked out from the molar mass of the structure shown. Values joined by “and” are separate entries in the source; they are usually repeats but may differ in a detail not shown here. Identical values can stand only once. Like-named read-outs stand apart in the source and are kept apart here. Marks after values point to notes of the source that are not given here. Some results are limits rather than exact numbers.

As to `[H]/N=C(\N/C(=N/[H])NCCCCCCNC(=N)NC(=N)Nc1ccc(Cl)cc1)Nc1ccc(Cl)cc1` [Chlorhexidine, chlorhexidine, reference compound], in the experiment with dental caries, the “smooth-surface caries severity scores versus control (in words)” value was “significantly lower”; the “smooth surface caries, Keyes's score” value was 2.0±1.9; the “reduction of the incidence of smooth surface caries compared to control” value was 75%; the “incidence and severity of sulcal-surface caries (in words)” value was “reduced”. For the same molecule, the “Infection by S. sobrinus, %” value in experiment [1] is reported as 34.1 (10.8)^b %. In the experiment with streptococcal GTFs [2], the “inhibition of GTFs on a surface” value is given as 10-20%. For the same molecule, the “inhibition of GTFs in solution” value in the experiment on streptococcal GTFs [3] (1.33 mM) was 30-45%. The “inhibitory effects on the activities of GTFs (in words)” value (“inhibitory effects on the activities” below) with streptococcal GTFs [3] is recorded as “either negligible or moderate inhibitory effects”. The “incubation time to bactericidal effects” value in the experiment with mutans streptococci (8.9 μM (MBC), mutans streptococci strains) turned out to be 8 h. The MIC – broadly, the lowest concentration found to suppress growth – in [4] (all strains tested (S. mutans GS-5, UA159, S. sobrinus 6715), read-out: MIC) is 1.1 to 2.2 µM. For the same molecule, the minimum inhibitory concentration (MIC) in [4] (all strains tested, read-out: MIC) is 1 to 2 µg/mL. Moreover, in [4] (mutans streptococci strains), the MBC (commonly the lowest tested concentration that kills the bacteria rather than only halting them) is 8.9 µM and 8 µg/mL. Further, in experiment [5], the “antibacterial activity against mutans streptococci biofilms (in words)” value (from here on “antibacterial activity”) is on record as “not bactericidal” and the “decrease in viable counts of biofilms” value is given as 2-3 log10 CFU/ml.
Turning to `O=C(O)c1ccc(O)c(O)c1` [Protocatechuic acid], the “effects on GTF enzymes (in words)” value in the experiment with streptococcal GTFs [3] (125 to 500 μM, solution and surface not told apart) is recorded as “enhanced”. In [4], this molecule returned a minimum inhibitory concentration (MIC) of more than 500 µM.
`CC(C)=CCC/C(C)=C/CC/C(C)=C/CO` [tt-Farnesol]: in the experiment with dental caries, the “smooth-surface caries severity scores versus control (in words)” value is “significantly lower”. The “Infection by S. sobrinus, %” value in [1] is on record as 44.8 (8.2)^a %. For the same molecule, the “concentration giving visible membrane disruption of streptococci” value in the experiment with streptococci is listed as more than 10 mM. For the same molecule, the MBC in [6] is 500 µM (≈ 111 µg/mL); in experiment [7] (S. sobrinus 6715), 56 µg/mL; in experiment [7] (Streptococcus sobrinus 6715), 250 µM; in [8], 500 µM (≈ 111 µg/mL); with S. mutans strains, 500 μM and 112 μg/ml. Also, the MIC in [6] is 125 µM (≈ 27.8 µg/mL); in [7] (S. sobrinus 6715) it was 14 µg/mL; in experiment [7] (Streptococcus sobrinus 6715), 62.5 µM; in [8], 125 µM (≈ 27.8 µg/mL); against S. mutans strains, 125 μM and 28 μg/ml. For the same molecule, the “inhibitory effects on the activities” value in the experiment with streptococcal GTFs [3] was “either negligible or moderate inhibitory effects”. Moreover, in the experiment with streptococcal GTFs [3] (1.33 mM, solution or surface not specified), the “effects on enzyme activity (GTFs)” value is 10-20%. Further, in the experiment with mutans streptococci (four times the MIC (or MBC), S. sobrinus 6715 and S. mutans strains), the “incubation time to bactericidal effects (≧3 log decrease in CFU/ml)” value is given as 4-8 h. Also, in the experiment with mutans streptococci (four times the MIC (or MBC), within 30 min. to 1 h of incubation), the “reduction of viable counts” value is listed as 1 log of CFU/ml. Moreover, the “formation of biofilms (in words)” value with biofilms is recorded as “inhibits formation of biofilms”. Besides, the “decrease in viable counts of biofilms” value in experiment [5] is 1 log10 CFU/ml.
Consider `[F-].[Na+]` [Fluoride, sodium fluoride], for which, in the experiment with dental caries, the “smooth-surface caries severity scores versus control (in words)” value is listed as “significantly lower”; the “smooth surface caries, Keyes's score” value amounted to 2.3±3.0; the “reduction of the incidence of smooth surface caries compared to control” value turned out to be 72%; the “incidence and severity of sulcal-surface caries (in words)” value is “reduced”. Also, the “Infection by S. sobrinus, %” value in [1] is listed as 39.8 (13.2)^ab %. The “inhibitory effects on the activities” value in the experiment with streptococcal GTFs [3] is “devoid of detectable antimicrobial and anti-GTF activity”. For the same molecule, in the experiment with streptococcal GTFs [3] (listed as fluoride), the “inhibitory effects on the activities” value is on record as “either negligible or moderate inhibitory effects”. For the same molecule, in experiment [5], the “antibacterial activity” value is “devoid of detectable antimicrobial and anti-GTF activity”. Also, in experiment [5] (listed as fluoride), the “antibacterial activity” value is listed as “negligible antibacterial activity”.
